Assay results: PubChem BioAssay (NCI)
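Protocol summary: plate cells (96-well), add compound at 5 concentrations, incubate 48 h, interpolate endpoints linearly. GI50 marks 50% less growth. TGI marks complete inhibition of growth.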

Experiments:
Experiment in all cases: DTP human tumour cell line panel, 48 h
[1] = system: MDA-MB-231 breast
[2] = system: OVCAR-3 ovarian
[3] = system: UACC-257 melanoma
[4] = system: IGROV1 ovarian
[5] = system: MCF7 breast
[6] = system: OVCAR-4 ovarian
[7] = system: SF-268 CNS
[8] = system: KM12 colon
[9] = system: MALME-3M melanoma
[10] = system: UO-31 renal
[11] = system: SK-MEL-2 melanoma
[12] = system: CCRF-CEM leukemia
[13] = system: EKVX NSCLC
[14] = system: HCT-116 colon
[15] = system: SK-MEL-5 melanoma
[16] = system: HOP-92 NSCLC
[17] = system: SF-295 CNS
[18] = system: BT-549 breast
[19] = system: HT29 colon
[20] = system: CAKI-1 renal
[21] = system: SF-539 CNS
[22] = system: A498 renal
[23] = system: HCC-2998 colon
[24] = system: SNB-19 CNS
[25] = system: T-47D breast
[26] = system: NCI-H23 lung
[27] = system: U251 CNS
[28] = system: SN12C renal
[29] = system: HL-60(TB) leukemia
[30] = system: NCI-H460 lung
[31] = system: MDA-MB-468 breast
[32] = system: LOX IMVI melanoma
[33] = system: DU-145 prostate
[34] = system: UACC-62 melanoma
[35] = system: HS 578T breast
[36] = system: SK-OV-3 ovarian
[37] = system: OVCAR-8 ovarian
[38] = system: SW-620 colon
[39] = system: RXF 393 renal
[40] = system: PC-3 prostate
[41] = system: TK-10 renal
[42] = system: ACHN renal
[43] = system: MOLT-4 leukemia
[44] = system: SK-MEL-28 melanoma
[45] = system: NCI-H522 lung
[46] = system: 786-0 renal
[47] = system: OVCAR-5 ovarian
[48] = system: HOP-62 NSCLC
[49] = system: SNB-75 CNS
[50] = system: A549 NSCLC
[51] = system: NCI/ADR-RES ovarian
[52] = system: NCI-H226 lung

Compound: Cn1cc(-c2cc3nc(-c4cn(C)c5ncccc45)cc(N)n3n2)c2ccccc21
- GI50 [1]: 2.99 µM
- TGI [1]: 9.7 µM
- GI50 [2]: 3.08 µM
- TGI [2]: 11.4 µM
- GI50 [3]: 1.83 µM
- TGI [3]: 3.71 µM
- GI50 [4]: 2.84 µM
- TGI [4]: 8.11 µM
- GI50 [5]: 3.38 µM
- TGI [5]: 24.2 µM
- GI50 [6]: 2.6 µM
- TGI [6]: 8.09 µM
- GI50 [7]: 17.2 µM
- TGI [7]: > 100 µM
- GI50 [8]: 3.84 µM
- TGI [8]: > 100 µM
- GI50 [9]: 1.86 µM
- TGI [9]: 3.3 µM
- GI50 [10]: 4.77 µM
- TGI [10]: 40.9 µM
- GI50 [11]: 2.17 µM
- TGI [11]: 5.5 µM
- GI50 [12]: 2.52 µM
- TGI [12]: 6.49 µM
- GI50 [13]: 10.7 µM
- TGI [13]: 51.3 µM
- GI50 [14]: 2.56 µM
- TGI [14]: 6.9 µM
- GI50 [15]: 3.44 µM
- TGI [15]: 15.7 µM
- GI50 [16]: 2.93 µM
- TGI [16]: 8.33 µM
- GI50 [17]: 1.73 µM
- TGI [17]: 3.63 µM
- GI50 [18]: 10.2 µM
- TGI [18]: 24.3 µM
- GI50 [19]: 2.15 µM
- TGI [19]: 6.22 µM
- GI50 [20]: 3.74 µM
- TGI [20]: 19.1 µM
- GI50 [21]: 1.8 µM
- TGI [21]: 3.71 µM
- GI50 [22]: 17.6 µM
- TGI [22]: 37 µM
- GI50 [23]: 2.26 µM
- TGI [23]: 5.44 µM
- GI50 [24]: 5.11 µM
- TGI [24]: 26.7 µM
- GI50 [25]: 5.77 µM
- TGI [25]: 74.7 µM
- GI50 [26]: 10 µM
- TGI [26]: 41.2 µM
- GI50 [27]: 3.16 µM
- TGI [27]: 21.4 µM
- GI50 [28]: 2.97 µM
- TGI [28]: 14.2 µM
- GI50 [29]: 2.33 µM
- TGI [29]: 5.11 µM
- GI50 [30]: 3.75 µM
- TGI [30]: 14.7 µM
- GI50 [31]: 2.43 µM
- TGI [31]: 7.76 µM
- GI50 [32]: 2.15 µM
- TGI [32]: 4.65 µM
- GI50 [33]: 9.59 µM
- TGI [33]: 52.9 µM
- GI50 [34]: 1.73 µM
- TGI [34]: 3.34 µM
- GI50 [35]: 2.48 µM
- TGI [35]: 8.08 µM
- GI50 [36]: 21 µM
- TGI [36]: 69.3 µM
- GI50 [37]: 5.63 µM
- TGI [37]: > 100 µM
- GI50 [38]: 4.38 µM
- TGI [38]: > 100 µM
- GI50 [39]: 2.01 µM
- TGI [39]: 4.01 µM
- GI50 [40]: 5.52 µM
- TGI [40]: 55 µM
- GI50 [41]: 11.6 µM
- TGI [41]: 51.6 µM
- GI50 [42]: 2.6 µM
- TGI [42]: 7.42 µM
- GI50 [43]: 2.38 µM
- TGI [43]: 8.9 µM
- GI50 [44]: 1.71 µM
- TGI [44]: 3.12 µM
- GI50 [45]: 2.35 µM
- TGI [45]: 5.91 µM
- GI50 [46]: 1.68 µM
- TGI [46]: 3.16 µM
- GI50 [47]: 8.81 µM
- TGI [47]: 98.9 µM
- GI50 [48]: 4.5 µM
- TGI [48]: 20.7 µM
- GI50 [49]: 4.97 µM
- TGI [49]: 24.6 µM
- GI50 [50]: 4.6 µM
- TGI [50]: > 100 µM
- GI50 [51]: 5.02 µM
- TGI [51]: 24.9 µM
- GI50 [52]: 2.7 µM
- TGI [52]: 7.12 µM
